According to patent publication EP2741758B1, “POLYPHENOLIC FORMULATION, ITS PREPARATION AND USE” (Uniwersytet Medyczny W Lodzi, priority 2011, dated 2013):

Tested on: HepG2, HMEC-1, A549, Caco-2, 3T3
Test: Multiparameter automated HCS cytotoxicity test "Cell health assay"
Assay type: cell-based
Parameters: scale not given here
Conditions: for cumulative cytotoxicity index: points over 5 cell lines; for cumulative cytotoxicity index, Total: sum over the five concentrations
Experimental: Thanks to the use of three fluorescent dyes (MitoTracker - Invitrogen, YO-[…], Hoechst 33 342 - Sigma), assessment of the impact of the studied extracts on the size, and morphology of the nucleus, cytoplasmic membrane integrity, and mitochondrial activity was made. Tests were performed on 96-well plates using 5 cell lines (HepG2, HMEC-1, A549, Caco-2, 3T3). The measurements were taken using automatic pipetting station JANUS by Perkin Elmer. The formulation was examined at five concentrations, measurements were taken in duplicates in 5 independent series. Based on the raw experimental data, statistical analysis of significance of observed differences in average values for three selected measurement parameters, measuring the fluorescence intensity, and dyed surface in cells, using fluorescent dyes, was made. The selected parameters illustrate: • 1. Surface of the cell nucleus (Hoechst (Sigma) • 2. Accumulation of YO-[…] dye (Invitrogen), indicating cytoplasmic membrane damage • 3. Mitochondrial potential (MitoTracker - Invitrogen) Then, the statistically significant differences for each tested concentration of each substance, which indicate morphological, and functional changes in cells, showing cytotoxic activity, were assigned with point values as shown in the diagram of assessment of the observed effects below. Differences subject to the scoring: • 1. Decrease, or increase in nucleus surface • 2. Increase in the accumulation of YO-[…] • 3. Decrease in the mitochondrial potential The following Table 13 illustrates the assigned point values given to the studied formulations in "Cell health assay" test. Table 13. Point values adopted in "Cell health assay" test. [table]

| Structure (SMILES) | cumulative cytotoxicity index (5 µg/ml) | cumulative cytotoxicity index (10 µg/ml) | cumulative cytotoxicity index (30 µg/ml) | cumulative cytotoxicity index (40 µg/ml) | cumulative cytotoxicity index (50 µg/ml) | cumulative cytotoxicity index, Total |
| --- | --- | --- | --- | --- | --- | --- |
| O=c1c(O)c(-c2ccc(O)cc2)oc2cc(O)cc(O)c12 [Kaempferol] | 2.6 | 1.4 | 8.4 | 8.4 | 6.2 | 27.0 |
| C[C@@H]1O[C@@H](O[C@H]2[C@H](Oc3cc(O)c4c(c3)O[C@H](c3ccc(O)cc3)CC4=O)O[C@H](CO)[C@@H](O)[C@@H]2O)[C@H](O)[C@H](O)[C@H]1O [Naringin] | 0.0 | 0.0 | 0.2 | 1.4 | 0.2 | 1.8 |
